Test results reported in ChEMBL document CHEMBL3632480, “Optimization of an indazole series of selective estrogen receptor degraders: Tumor regression in a tamoxifen-resistant breast cancer xenograft” (Bioorg Med Chem Lett, 2015).

Key:
MCF7 [1] = assay: Decrease in estrogen receptor alpha level in human MCF7 cells after 4 hrs by in-cell western assay relative to fulvestrant; format: functional; conditions: MCF7, 4 h
MCF7 [2] = assay: Cytotoxicity against human MCF7 cells assessed as decrease in cell viability after 5 days by celltiterGlo assay; format: functional, cell-based; conditions: MCF7, 120 h
MCF7 [3] = assay: Decrease in estrogen receptor alpha level in human MCF7 cells after 4 hrs by in-cell western assay; format: functional, cell-based; conditions: MCF7, 4 h
[4] = AUC in CD-1 mouse at 10 mg/kg, po; format: ADME, organism-based; conditions: in vivo
Rattus norvegicus = assay: Decrease in uterine wet weight of CD-IGS rat at 1 mg/kg, po qd followed 15 mins later administration of 0.1 mg/kg, po 17alpha-ethynylestradiol for 3 consecutive days; format: functional
[5] = Fraction unbound in CD-1 mouse plasma by equilibrium dialysis; format: ADME, cell-free

Structure (SMILES)	Emax (MCF7 [1]) [%]	IC50 (MCF7 [2]) [nM]	EC50 (MCF7 [3]) [nM]	AUC [4] [ng·h/mL]	inhibition (INH) (Rattus norvegicus) [%]	fraction unbound [5]
O=C(O)/C=C/c1ccc(/C(=C(\c2ccccn2)C2CCC2)c2ccc3[nH]nc(F)c3c2)cc1	90	22	7.6	–	–	–
Cc1cccnc1/C(=C(\c1ccc(/C=C/C(=O)O)cc1)c1ccc2[nH]nc(F)c2c1)C1CCC1	88	4.2	0.8	190	–	–
O=C(O)/C=C/c1ccc(/C(=C(\c2ccccc2)C2CCC2)c2ccc3[nH]nc(F)c3c2)cc1	90	1.4	0.4	14600	81	0.003
CCC/C(=C(/c1ccc(/C=C/C(=O)O)cc1)c1ccc2[nH]ncc2c1)c1ccccc1	92	11	4.6	–	–	–
O=C(O)/C=C/c1ccc(/C(=C(\c2ccccc2)C2CCC2)c2ccc3[nH]ncc3c2)cc1	89	1.4	0.3	–	–	–
C/C(=C(/c1ccc(/C=C/C(=O)O)cc1)c1ccc2[nH]ncc2c1)c1ccccc1	92	40	26	–	–	–
C[C@]12CC[C@@H]3c4ccc(O)cc4C[C@@H](CCCCCCCCC[S+]([O-])CCCC(F)(F)C(F)(F)F)[C@H]3[C@@H]1CC[C@@H]2O (stereo partly drawn) [FULVESTRANT]	100	0.6	0.4	–	–	–
COc1ccc(/C(=C(\c2ccc(/C=C/C(=O)O)cc2)c2ccc3[nH]nc(F)c3c2)C2CCC2)c(C#N)c1	94	0.5	0.3	2000	82	0.004
N#Cc1cc(Cl)ccc1/C(=C(\c1ccc(/C=C/C(=O)O)cc1)c1ccc2[nH]nc(F)c2c1)C1CCC1	94	0.7	0.3	3700	87	0.007
CC/C(=C(/c1ccc(/C=C/C(=O)O)cc1)c1cc(F)c2[nH]ncc2c1)c1ccccc1	92	7.5	6.4	–	–	–
CCCC/C(=C(/c1ccc(/C=C/C(=O)O)cc1)c1ccc2[nH]ncc2c1)c1ccccc1	92	10	11	–	–	–
O=C(O)/C=C/c1ccc(/C(=C(\c2ccncc2Cl)C2CCC2)c2ccc3[nH]nc(F)c3c2)cc1	90	0.8	0.3	1800	74	0.012
CC/C(=C(/c1ccc(/C=C/C(=O)O)cc1)c1ccc2[nH]ncc2c1C)c1ccccc1	90	50	13	–	–	–
O=C(O)/C=C/c1ccc(/C(=C(\c2ncc(Cl)cc2Cl)C2CCC2)c2ccc3[nH]nc(F)c3c2)cc1	91	3.5	0.8	15600	80	0.011
O=C(O)/C=C/c1ccc(/C(=C(\c2ncccc2Cl)C2CCC2)c2ccc3[nH]nc(F)c3c2)cc1	90	1.2	0.3	900	83	0.032
O=C(O)/C=C/c1ccc(/C(=C(\c2ncccc2C(F)(F)F)C2CCC2)c2ccc3[nH]nc(F)c3c2)cc1	89	1.1	0.3	690	–	0.048
O=C(O)/C=C/c1ccc(/C(=C(/CCF)c2ccccc2)c2ccc3[nH]ncc3c2)cc1	91	2.1	1.4	–	–	–
O=C(O)/C=C/c1ccc(/C(=C(\c2ccccc2)C2CCCCC2)c2ccc3[nH]ncc3c2)cc1	86	64	25	–	–	–
CC/C(=C(/c1ccc(/C=C/C(=O)O)cc1)c1cc(C)c2[nH]ncc2c1)c1ccccc1	89	59	19	–	–	–
COCC/C(=C(/c1ccc(/C=C/C(=O)O)cc1)c1ccc2[nH]ncc2c1)c1ccccc1	92	63	47	–	–	–
O=C(O)/C=C/c1ccc(/C(=C(\c2ccccc2)C(F)F)c2ccc3[nH]ncc3c2)cc1	91	14	4.7	–	–	–

Structure (SMILES)	Emax (MCF7 [1]) [%]	IC50 (MCF7 [2]) [nM]	EC50 (MCF7 [3]) [nM]	AUC [4] [ng·h/mL]	inhibition (INH) (Rattus norvegicus) [%]	fraction unbound [5]
O=C(O)/C=C/c1ccc(/C(=C(/CCCl)c2ccccc2)c2ccc3[nH]ncc3c2)cc1	90	9	1.4	–	–	–
O=C(O)/C=C/c1ccc(/C(=C(\c2ncc(F)cc2Cl)C2CCC2)c2ccc3[nH]nc(F)c3c2)cc1	89	1.7	0.6	–	–	–
O=C(O)/C=C/c1ccc(/C(=C(\c2ccccc2)C(F)(F)F)c2ccc3[nH]ncc3c2)cc1	92	5.5	3.1	–	–	–
O=C(O)/C=C/c1ccc(/C(=C(\c2ccc(C(F)(F)F)cc2Cl)C2CCC2)c2ccc3[nH]nc(F)c3c2)cc1	94	8.2	3	–	–	–
CC(C)/C(=C(/c1ccc(/C=C/C(=O)O)cc1)c1ccc2[nH]ncc2c1)c1ccccc1	91	4	4.3	–	–	–
O=C(O)/C=C/c1ccc(/C(=C(\c2ccc(F)cc2Cl)C2CCC2)c2ccc3[nH]nc(F)c3c2)cc1	91	2	0.6	–	–	–
N#Cc1cc(Cl)cnc1/C(=C(\c1ccc(/C=C/C(=O)O)cc1)c1ccc2[nH]nc(F)c2c1)C1CCC1	93	1.1	0.4	250	–	–
O=C(O)/C=C/c1ccc(/C(=C(\c2ccccc2)C2CC2)c2ccc3[nH]ncc3c2)cc1	89	13	2.8	–	–	–
CC/C(=C(/c1ccc(/C=C/C(=O)O)cc1)c1ccc2[nH]ncc2c1)c1ccccc1	90	7.2	–	–	–	–
CC/C(=C(/c1ccc(/C=C/C(=O)O)cc1)c1ccc2[nH]ncc2c1)c1ccc(F)cc1Cl [BRILANESTRANT]	90	2.5	–	–	79	0.011
CC/C(=C(/c1ccc(/C=C/C(=O)O)cc1)c1ccc2[nH]nc(F)c2c1)c1ccccc1	90	5	1.1	14000	–	–
CC/C(=C(/c1ccc(/C=C/C(=O)O)cc1)c1ccc2[nH]ncc2c1F)c1ccccc1	89	3	0.9	8200	–	–
CS(=O)(=O)c1ccc(/C(=C(\c2ccc(/C=C/C(=O)O)cc2)c2ccc3[nH]nc(F)c3c2)C2CCC2)c(Cl)c1	91	2.3	0.9	140	29	–
CC/C(=C(/c1ccc(/C=C/C(=O)O)cc1)c1ccc2[nH]ncc2c1OC)c1ccccc1	91	55	19	–	–	–
O=C(O)/C=C/c1ccc(/C(=C(/CCO)c2ccccc2)c2ccc3[nH]ncc3c2)cc1	–	> 1000	> 1000	–	–	–
CC/C(=C(/c1ccc(/C=C/C(=O)O)cc1)c1ccc2[nH]ncc2n1)c1ccccc1	88	33	20	–	–	–
CC/C(=C(/c1ccc(/C=C/C(=O)O)cc1)c1ccc2[nH]ncc2c1Cl)c1ccccc1	93	1.6	0.8	18000	–	–
CC/C(=C(/c1ccc(/C=C/C(=O)O)cc1)c1cc(Cl)c2[nH]ncc2c1)c1ccccc1	92	56	18	–	–	–
COC/C(=C(/c1ccc(/C=C/C(=O)O)cc1)c1ccc2[nH]ncc2c1)c1ccccc1	86	88	35	–	–	–
O=C(O)/C=C/c1ccc(/C(=C(\c2ccccc2)C2CCCC2)c2ccc3[nH]ncc3c2)cc1	90	10	9.3	–	–	–
CC/C(=C(/c1ccc(/C=C/C(=O)O)cc1)c1ccc2[nH]ncc2c1C#N)c1ccccc1	91	1.5	0.5	500	–	–
